Experimental data from the NIST ThermoML archive (doi:10.1016/j.jct.2004.09.009).

What was measured:
[1] = Liquid; for mass density: 298.15 K, 101.33 kPa, Vibrating tube method; for vapor or sublimation pressure / Normal boiling temperature: Ebulliometric method (Recirculating still)
[2] = xn = mol fraction of the nth substance listed; settings: 101.3 kPa, Liquid

CCC(C)O (stereo not drawn) [butan-2-ol]
[1]
Settings | Normal boiling temperature [°C] | mass density [kg/m3]
– | 99.19 | 802.4

[1]
Settings | vapor or sublimation pressure [kPa]
355.98 K | 53.32
358.8 K | 59.98
361.41 K | 66.64
363.82 K | 73.31
366.02 K | 79.97
368.13 K | 86.64
370.09 K | 93.3
370.83 K | 95.97
371.54 K | 98.63
372.34 K | 101.3
373.09 K | 103.97
373.79 K | 106.63
375.46 K | 113.3
377.04 K | 119.96
378.57 K | 126.63
380.02 K | 133.29
381.42 K | 139.95
382.76 K | 146.62
384.06 K | 153.28
385.31 K | 159.95
386.52 K | 166.61
387.69 K | 173.28
388.83 K | 179.94
389.94 K | 186.61
391 K | 193.27
392.05 K | 199.93
393.07 K | 206.6
394.07 K | 213.26
395.06 K | 219.93
396.01 K | 226.59
396.94 K | 233.26
397.86 K | 239.92
398.76 K | 246.59
399.64 K | 253.25
400.48 K | 259.91
401.34 K | 266.58
402.19 K | 273.24
402.98 K | 279.91
403.77 K | 286.57
404.56 K | 293.24
405.32 K | 299.9

CCOC(=O)OCC [diethyl carbonate] + CC1CCCCC1
mass density [kg/m3], [2]
Settings | 293.15 K | 298.15 K | 303.15 K | 308.15 K | 313.15 K
x1 = 0.0473 | 777.44 | 773.05 | 768.64 | 764.22 | 759.78
x1 = 0.0978 | 786.43 | 781.97 | 777.5 | 773 | 768.48
x1 = 0.1985 | 804.96 | 800.36 | 795.73 | 791.09 | 786.42
x1 = 0.2968 | 823.73 | 818.99 | 814.23 | 809.44 | 804.6
x1 = 0.3924 | 842.56 | 837.7 | 832.8 | 827.88 | 822.9
x1 = 0.4993 | 864.26 | 859.23 | 854.18 | 849.14 | 844.04
x1 = 0.5999 | 885.33 | 880.2 | 875.04 | 869.85 | 864.64
x1 = 0.6985 | 906.48 | 901.24 | 895.95 | 890.65 | 885.31
x1 = 0.7988 | 928.64 | 923.28 | 917.88 | 912.46 | 907.02
x1 = 0.8996 | 951.53 | 946.06 | 940.54 | 935.01 | 929.44
x1 = 0.9509 | 963.41 | 957.86 | 952.29 | 946.7 | 941.08
x1 = 1 | 974.83 | 969.24 | 963.61 | 957.96 | 952.29

CC1CCCCC1 [methylcyclohexane] + CCOC(=O)OCC
[2], x2 = 0
Settings | mass density [kg/m3]
293.15 K | 769.3
298.15 K | 764.98
303.15 K | 760.65
308.15 K | 756.29
313.15 K | 751.93

COC(=O)OC [dimethyl carbonate]
[1]
Settings | Normal boiling temperature [°C] | mass density [kg/m3]
– | 90.31 | 1063.36

CC(C)O [propan-2-ol]
[1]
Settings | Normal boiling temperature [°C] | mass density [kg/m3]
– | 82.46 | 780.87

[1]
Settings | vapor or sublimation pressure [kPa]
345.46 K | 66.64
347.71 K | 73.31
349.79 K | 79.97
351.72 K | 86.64
353.54 K | 93.3
354.01 K | 95.04
355.25 K | 99.97
355.61 K | 101.3
356.27 K | 103.97
356.9 K | 106.63
358.45 K | 113.3
359.91 K | 119.96
361.29 K | 126.63
362.65 K | 133.29
363.94 K | 139.95
365.2 K | 146.62
366.38 K | 153.28
367.56 K | 159.95
368.65 K | 166.61
369.76 K | 173.28
371.81 K | 186.61
372.8 K | 193.27
373.76 K | 199.93
374.69 K | 206.6
375.57 K | 213.26
376.46 K | 219.93
377.29 K | 226.59
378.13 K | 233.26
378.93 K | 239.92
379.71 K | 246.59
380.45 K | 253.25
381.17 K | 259.91
381.89 K | 266.58
382.8 K | 273.24
383.48 K | 279.91
384.11 K | 286.57
384.79 K | 293.24
385.42 K | 299.9

CC1CCCCC1 [methylcyclohexane]
[1]
Settings | Normal boiling temperature [°C] | mass density [kg/m3]
– | 100.92 | 764.98

[1]
Settings | vapor or sublimation pressure [kPa]
352.46 K | 53.32
356.26 K | 59.98
359.62 K | 66.64
362.83 K | 73.31
365.81 K | 79.97
368.47 K | 86.64
370.99 K | 93.3
371.98 K | 95.97
373.08 K | 98.63
374.07 K | 101.3
374.95 K | 103.97
375.86 K | 106.63
378.04 K | 113.3
380.12 K | 119.96
382.12 K | 126.63
384.05 K | 133.29
385.89 K | 139.95
387.59 K | 146.62
389.36 K | 153.28
391.04 K | 159.95
392.8 K | 166.61
394.38 K | 173.28
395.87 K | 179.94
397.33 K | 186.61
398.76 K | 193.27
400.12 K | 199.93
401.45 K | 206.6
402.8 K | 213.26
404.1 K | 219.93
405.35 K | 226.59
406.56 K | 233.26
407.66 K | 239.92
408.9 K | 246.59
409.98 K | 253.25

CCOC(=O)OCC [diethyl carbonate]
[1]
Settings | Normal boiling temperature [°C] | mass density [kg/m3]
– | 126.17 | 969.24
